Experimental findings from US6489295B1, “Antagonists of intestinotrophic GLP-2 peptides” (1149336 Ontario Inc., priority 1996, dated 2002) are described below.

Non-standard residues stand in square brackets, D forms with d. Residues, ends and D or L forms follow the SMILES beside them. No end group written: not given here. pY = N[C@@H](Cc1ccc(OP(=O)(O)O)cc1)C(=O)O

The target of the first data set is T1, human placental DPP-IV (Homo sapiens, UniProt P27487).
T1 sequence (P27487 whole entry): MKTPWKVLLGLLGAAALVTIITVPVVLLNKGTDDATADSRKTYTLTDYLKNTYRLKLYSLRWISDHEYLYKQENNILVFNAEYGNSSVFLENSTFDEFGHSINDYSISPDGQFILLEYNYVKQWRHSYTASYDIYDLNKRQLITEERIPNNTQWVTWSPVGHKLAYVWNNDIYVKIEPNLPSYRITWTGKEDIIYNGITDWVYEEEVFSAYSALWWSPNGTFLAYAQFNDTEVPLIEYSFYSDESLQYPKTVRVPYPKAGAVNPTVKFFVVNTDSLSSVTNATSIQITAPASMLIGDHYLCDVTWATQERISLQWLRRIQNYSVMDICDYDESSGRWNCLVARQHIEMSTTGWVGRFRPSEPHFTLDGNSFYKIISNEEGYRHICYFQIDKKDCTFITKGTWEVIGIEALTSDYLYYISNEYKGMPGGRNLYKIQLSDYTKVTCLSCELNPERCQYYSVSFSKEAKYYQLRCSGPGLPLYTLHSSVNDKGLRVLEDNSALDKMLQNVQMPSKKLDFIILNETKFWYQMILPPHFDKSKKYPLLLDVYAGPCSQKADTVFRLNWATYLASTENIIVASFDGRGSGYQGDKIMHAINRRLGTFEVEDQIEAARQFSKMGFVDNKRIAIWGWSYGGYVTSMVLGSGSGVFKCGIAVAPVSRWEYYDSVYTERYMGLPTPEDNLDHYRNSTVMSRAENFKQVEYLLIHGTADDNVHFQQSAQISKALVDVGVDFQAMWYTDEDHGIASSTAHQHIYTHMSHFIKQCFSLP
Assay: not given
Conditions: not given
With `CC[C@H](C)[C@H](NC(=O)[C@H](Cc1ccccc1)NC(=O)[C@H](CC(=O)O)NC(=O)[C@H](CCCNC(=N)N)NC(=O)[C@H](C)NC(=O)[C@H](C)NC(=O)[C@H](CC(C)C)NC(=O)[C@H](CC(N)=O)NC(=O)[C@H](CC(=O)O)NC(=O)[C@H](CC(C)C)NC(=O)[C@@H](NC(=O)[C@@H](NC(=O)[C@H](CC(N)=O)NC(=O)[C@H](CCSC)NC(=O)[C@H](CCC(=O)O)NC(=O)[C@H](CC(=O)O)NC(=O)[C@H](CO)NC(=O)[C@H](Cc1ccccc1)NC(=O)[C@H](CO)NC(=O)CNC(=O)[C@H](CC(=O)O)NC(=O)[C@H](Cc1ccc(OP(=O)(O)O)cc1)NC(=O)[C@@H](N)Cc1c[nH]cn1)[C@@H](C)O)[C@@H](C)CC)C(=O)N[C@@H](CC(N)=O)C(=O)N[C@@H](Cc1c[nH]c2ccccc12)C(=O)N[C@@H](CC(C)C)C(=O)N[C@H](C(=O)N[C@@H](CCC(N)=O)C(=O)N[C@H](C(=O)N[C@@H](CCCCN)C(=O)N[C@H](C(=O)N[C@H](C(=O)N[C@@H](CC(=O)O)C(=O)O)[C@@H](C)O)[C@@H](C)CC)[C@@H](C)O)[C@@H](C)CC` [[PO3-Tyr^2]GLP-2] (H-H[pY]DGSFSDEMNTILDNLAARDFINWLIQTKITD-OH; N-terminus and C-terminus assumed), the “cleavage products detected after DPP-IV incubation” value (from here on “cleavage products detected”) is given as “No cleavage products were detected”.
On the same count and under the same terms, the result for “HCDGSFSDEMNTILDNLAARDFINWLIQTKITD [[Cys^2]GLP-2]” reads “No cleavage products were detected”.
On the same count and under the same terms, to “HEDGSFSDEMNTILDNLAARDFINWLIQTKITD [[Glu^2]GLP-2]” belongs “No cleavage products were detected”.
Same read-out and setting: the result for “HGDGSFSDEMNTILANLAARDFINWLIQTKITD [[Gly^2, Ala^15]GLP-2]” reads “No cleavage products were detected”; that for “HGDGSFSDEMNTILDNLAARDAINWLIQTKITD [[Gly^2, Ala^22]GLP-2]”, “No cleavage products were detected”; that for “HGDGSFSDEMNTILDNLAARDFINWLIQAKITD [[Gly^2, Ala^29]GLP-2]”, “No cleavage products were detected”.
Consider “HGDGSFSDEMNTILDNLAARDFINWLIQTKIAD [[Gly^2, Ala^32]GLP-2]”, for which the “cleavage products detected” value is recorded as “No cleavage products were detected”.
As for “HGDGSFSDEMNTILDNLAARDFINWLIQTKITA [[Gly^2, Ala^33]GLP-2]”, the “cleavage products detected” value is recorded as “No cleavage products were detected”.
On to “HLDGSFSDEMNTILDNLAARDFINWLIQTKITD [[Leu^2]GLP-2]”, for which the “cleavage products detected” value is listed as “No cleavage products were detected”.
Still for that read-out and setting: to “HRDGSFSDEMNTILDNLAARDFINWLIQTKITD [[Arg^2]GLP-2]” belongs “No cleavage products were detected”; to “HWDGSFSDEMNTILDNLAARDFINWLIQTKITD [[Trp^2]GLP-2]”, “No cleavage products were detected”.

A further data set addresses T1, human placental DPP-IV. Description: Assay for resistance to dipeptidyl peptidase IV. Particulars: 24 hours at 37° C., RP-HPLC.
Method: To perform the assay, 2.5 microliters (μl) of a solution of human placental DPP-IV (Calbiochem, La Jolla, Calif., cat. # 317624) containing 0.125 milliunits (mU) of enzyme in 50% glycerol, mM Tris, pH 7.8, EDTA and 0.02% NaN3 was added to 50 μl of a solution of the test peptide prepared at a concentration of 0.2 mg/ml in PBS at pH 7.4. The mixture was incubated at 37° C. in a circulating water bath for 24 hours. The incubation was quenched by the addition of 50 μl of a solution of diprotin A prepared at a concentration of 4 mg/ml in PBS. Each peptide was tested in duplicate.
Each sample was analyzed by reverse-phase (RP) HPLC as follows: 90 μl of the quenched incubation mixture was injected onto a Rainin Dynamax 300 Å, C18, 5 micron, 4.6×250 millimeter column. The samples were eluted with 0.1% trifluoroacetic acid (TFA) in water modified with 0.1% acetonitrile using a linear gradient and a flow rate of 1 ml per minute. Sample components were detected at 214 nanometers (nm). The extent of cleavage was measured by relative integration of the peak corresponding to the cleavage product compared to that of the remaining undigested parent peptide.
Consider [D-Ala^2]ratGLP-2, for which the “cleavage products detected” value was “No cleavage products were detected”.
The same measure, in the same setting: the result for [Gly^2]ratGLP-2 reads “No cleavage products were detected”.

The test system of the next data set is intestinotrophic activity of rat GLP-2. Description: GLP-2 antagonist assessment by co-administration into mice with GLP-2 (small bowel weight). Type of data set: in vivo. Particulars: CD1 female mice, antagonist to GLP-2 ratio 4:1 by weight (12.5 μg/2.5 μg rat GLP-2) s.c. twice a day, 10-14 days. The procedure:
The candidate peptide antagonist and rat GLP-2 were dissolved in PBS to give a final ratio of 25 μg antagonist/2.5 μg GLP-2 per 0.5 ml phosphate buffered saline solution (for a 10:1 ratio), or […] antagonist/2.5 μg GLP-2 per 0.5 ml phosphate buffered saline solution (for a 4:1 ratio), as indicated. The antagonist/GLP-2 mixture was administered to 6-8 week old CD1 female mice subcutaneously, with the amount of peptide injected being 25 μg antagonist/2.5 μg GLP-2 in 0.5 ml twice a day, or 12.5 μg antagonist/2.5 μg GLP-2 in 0.5 ml twice a day. After 10-14 days, peptide-injected and control (saline-injected) mice were sacrificed, and small bowel weights were determined.
With ratGLP-2(3-33), the “% Antagonism” value was 33%.

The same data set, now with this note: CD1 female mice, antagonist to GLP-2 ratio 10:1 by weight (25 μg/2.5 μg rat GLP-2) s.c. twice a day, 10-14 days.
For the compound ratGLP-2(2-33), the “% Antagonism” value was determined as 42%.
As for ratGLP-2(4-33), the “% Antagonism” value is 32%.
Same read-out and setting: to ratGLP-2(5-33) belongs 16%.
